Test results: PMC8655237 (Journal of Advanced Research, 2021)

What was measured:
PC-3 [1] = assay: MTT antiproliferative assay; format: cell-based; conditions: Homo sapiens, PC-3, 24 h, read-out: IC50 (MTT)
FaDu = assay: MTT antiproliferative assay; format: cell-based; conditions: Homo sapiens, 24 h, read-out: IC50 (MTT)
A431 [2] = assay: MTT antiproliferative assay; format: cell-based; conditions: Homo sapiens, A-431, 24 h, read-out: IC50 (MTT)
PC-3 [3] = assay: NRU antiproliferative assay; format: cell-based; conditions: Homo sapiens, PC-3, 24 h, read-out: IC50 (NRU)
MDA-MB-231 = assay: NRU antiproliferative assay; format: cell-based; conditions: Homo sapiens, MDA-MB-231, 24 h, read-out: IC50 (NRU)
A549 = assay: NRU antiproliferative assay; format: cell-based; conditions: Homo sapiens, A549, 24 h, read-out: IC50 (NRU)
PC-3 [4] = assay: SRB antiproliferative assay; format: cell-based; conditions: Homo sapiens, PC-3, 24 h, read-out: IC50 (SRB)
A431 [5] = assay: SRB antiproliferative assay; format: cell-based; conditions: Homo sapiens, A-431, 24 h, read-out: IC50 (SRB)
COX-2 [6] = target: T1, COX-2 (Homo sapiens, UniProt P35354); assay: COX-2 assay, cell-free; format: biochemical
T1 sequence (P35354 18-604): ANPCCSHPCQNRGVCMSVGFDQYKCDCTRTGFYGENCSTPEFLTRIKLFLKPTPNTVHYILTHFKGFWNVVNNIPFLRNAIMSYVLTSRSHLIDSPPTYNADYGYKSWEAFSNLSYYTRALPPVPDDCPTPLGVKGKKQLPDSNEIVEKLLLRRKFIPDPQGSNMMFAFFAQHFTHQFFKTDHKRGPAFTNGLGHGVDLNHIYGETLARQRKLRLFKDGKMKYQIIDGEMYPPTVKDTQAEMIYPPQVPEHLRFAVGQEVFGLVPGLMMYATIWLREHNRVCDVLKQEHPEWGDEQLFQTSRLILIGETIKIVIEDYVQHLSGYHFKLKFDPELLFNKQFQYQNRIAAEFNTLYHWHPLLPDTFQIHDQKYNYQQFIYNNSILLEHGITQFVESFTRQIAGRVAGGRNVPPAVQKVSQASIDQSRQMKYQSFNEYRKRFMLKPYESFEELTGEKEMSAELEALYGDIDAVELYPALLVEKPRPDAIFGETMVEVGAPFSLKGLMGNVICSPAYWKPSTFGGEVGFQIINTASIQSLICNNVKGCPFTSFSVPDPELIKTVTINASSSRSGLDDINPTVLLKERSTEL

COX-2 [7] = target: T1, COX-2; assay: cell-based; conditions: IC50 COX-2, cell based
[8] = system: Ornithine decarboxylase (ODC); assay: ODC assay, cell-free; format: biochemical; conditions: read-out: IC50 ODC; cell free (In vitro)
hyaluronidase (HYAL) = assay: Hyaluronidase assay, cell-free; format: biochemical; conditions: cell-free system
COX-2 mRNA = assay: Real-time qPCR expression analysis; format: cell-based, human; conditions: GAPDH internal control
LOX-5 mRNA = assay: Real-time qPCR expression analysis; format: cell-based, human; conditions: GAPDH internal control
CAT D mRNA = assay: Real-time qPCR expression analysis; format: cell-based, human; conditions: GAPDH internal control
DHFR mRNA = assay: Real-time qPCR expression analysis; format: cell-based, human; conditions: A549, with respect to control, GAPDH internal control
PC-3 [9] = assay: Cell cycle analysis by flow cytometry; format: cell-based, human; conditions: PC-3, 24 h
A431 [10] = assay: Cell cycle analysis by flow cytometry; format: cell-based, human; conditions: A431, 24 h
K562 = assay: Cell cycle analysis by flow cytometry; format: cell-based, human; conditions: K562, 24 h
tubulin protein = tubulin protein (Sus scrofa, UniProt P02550+P02554); assay: Tubulin polymerization assay; format: biochemical; conditions: 100 μM
tubulin protein, sequence (P02550 whole entry): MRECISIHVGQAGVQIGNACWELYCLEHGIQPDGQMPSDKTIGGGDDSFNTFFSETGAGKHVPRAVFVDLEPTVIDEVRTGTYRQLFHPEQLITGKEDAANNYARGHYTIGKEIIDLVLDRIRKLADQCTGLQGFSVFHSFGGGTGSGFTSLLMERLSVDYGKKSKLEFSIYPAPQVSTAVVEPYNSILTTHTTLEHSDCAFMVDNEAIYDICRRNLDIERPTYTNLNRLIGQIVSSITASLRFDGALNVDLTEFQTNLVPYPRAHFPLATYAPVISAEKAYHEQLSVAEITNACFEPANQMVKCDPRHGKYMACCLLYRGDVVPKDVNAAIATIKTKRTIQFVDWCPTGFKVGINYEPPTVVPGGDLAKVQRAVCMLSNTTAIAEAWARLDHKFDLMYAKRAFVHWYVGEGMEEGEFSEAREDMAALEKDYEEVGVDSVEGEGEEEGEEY
tubulin protein, sequence (P02554 whole entry): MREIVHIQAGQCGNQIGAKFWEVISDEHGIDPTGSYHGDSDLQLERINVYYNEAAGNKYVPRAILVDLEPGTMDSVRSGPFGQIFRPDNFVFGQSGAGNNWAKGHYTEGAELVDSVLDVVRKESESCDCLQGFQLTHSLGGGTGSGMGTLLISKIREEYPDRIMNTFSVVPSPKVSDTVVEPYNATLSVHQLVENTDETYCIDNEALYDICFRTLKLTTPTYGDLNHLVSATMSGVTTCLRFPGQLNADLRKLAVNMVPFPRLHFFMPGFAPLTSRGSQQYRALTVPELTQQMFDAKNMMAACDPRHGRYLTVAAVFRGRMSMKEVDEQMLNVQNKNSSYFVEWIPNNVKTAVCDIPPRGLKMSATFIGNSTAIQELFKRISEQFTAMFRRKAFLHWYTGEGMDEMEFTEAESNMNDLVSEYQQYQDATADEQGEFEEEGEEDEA

A431 cells = assay: Mitochondrial membrane potential; format: cell-based, human; conditions: for total of FITC mean (Rh123): A431, flow cytometry
HDAC-6 = HDAC-6 quantification by ELISA in A431 cells; format: cell-based, human; conditions: A431, 100 µM, 24 h
[11] = system: Ehrlich Ascites Carcinoma (EAC); assay: Ehrlich ascites carcinoma; format: in vivo, Swiss albino mice; conditions: for reduction of EAC tumor cells (tumor growth inhibition): day 1-9
HEK-293 = assay: Cytotoxicity to normal cell line; format: cell-based, human; conditions: higher tested concentration (100 µM)
[12] = system: panel of organ-specific human cancer and normal cell lines; assay: Antiproliferative activity over the cell line panel; format: cell-based; conditions: read-out: IC50 range in all the tested assay systems
human erythrocytes = assay: Ex vivo osmotic fragility test; conditions: 100 μM
Acute oral toxicity = format: in vivo, Swiss albino mice; conditions: up to 1000 mg/kg body weight
[13] = ref https://chem.nlm.nih.gov/chemidplus/rn/3623–51-6; cited from earlier work
Cathepsin D (CATD) [14] = target: T2, Cathepsin D (CATD) (Homo sapiens, UniProt P07339); assay: Cathepsin D assay, cell-free
T2 sequence (P07339 65-412): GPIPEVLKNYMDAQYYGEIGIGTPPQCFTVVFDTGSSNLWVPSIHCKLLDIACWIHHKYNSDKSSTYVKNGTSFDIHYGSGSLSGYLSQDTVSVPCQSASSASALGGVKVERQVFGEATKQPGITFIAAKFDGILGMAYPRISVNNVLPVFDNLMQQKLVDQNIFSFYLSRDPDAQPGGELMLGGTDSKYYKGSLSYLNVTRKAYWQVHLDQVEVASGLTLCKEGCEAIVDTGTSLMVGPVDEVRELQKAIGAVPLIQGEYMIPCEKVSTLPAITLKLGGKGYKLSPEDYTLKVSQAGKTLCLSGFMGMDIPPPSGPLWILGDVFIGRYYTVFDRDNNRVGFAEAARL

Cathepsin D (CATD) [15] = target: T2, Cathepsin D (CATD); assay: Cathepsin D assay, cell-based; conditions: IC50 CAT D
[16] = MDA-MB-231, with respect to control

CC(C)[C@@H]1CC[C@@H](C)C[C@@H]1O [neomenthol, (+)-Neomenthol]
IC50 (PC-3 [1]): 20.1 ± 0.82 µM | IC50 (FaDu): 99.31 ± 0.59 µM | IC50 (A431 [2]): 17.3 ± 6.49 µM | IC50 (PC-3 [3]): 84.6 ± 1.81 µM | IC50 (MDA-MB-231): 34.7 ± 9.96 µM | IC50 (A549): 48.1 ± 4.97 µM | IC50 (PC-3 [4]): 16.4 ± 3.87 µM | IC50 (A431 [5]): 82.1 ± 1.97 µM | IC50 (COX-2 [6]): 81.01 ± 0.59 µM | IC50 (COX-2 [7]; A431): 39.1 ± 6.39 µM | IC50 (COX-2 [7]; FaDu): 87.2 ± 5.24 µM | IC50 (COX-2 [7]; PC-3): 62.2 ± 10.7 µM | IC50 [8]: 20.2 ± 1.09 µM | inhibition of hyaluronidase enzyme activity (hyaluronidase (HYAL)): 24.9 ± 4.31% | COX-2 mRNA expression level (COX-2 mRNA; A431, with respect to control): 1.34 fold change | COX-2 mRNA expression level (COX-2 mRNA; A549, with respect to control): 1.09 fold change | COX-2 mRNA expression level (COX-2 mRNA; FaDu, with respect to control): 1.38 fold change | COX-2 mRNA expression level (COX-2 mRNA; [16]): 1.16 fold change | COX-2 mRNA expression level (COX-2 mRNA; PC-3, with respect to control): 1.19 fold change | LOX-5 mRNA expression level (LOX-5 mRNA; A431, with respect to control): 1.25 fold change | LOX-5 mRNA expression level (LOX-5 mRNA; FaDu, with respect to control): 1.26 fold change | LOX-5 mRNA expression level (LOX-5 mRNA; K562, with respect to control): 1.10 fold change | CAT D mRNA expression level (CAT D mRNA; A431, with respect to control): 1.19 fold change | CAT D mRNA expression level (CAT D mRNA; A549, with respect to control): 1.37 fold change | CAT D mRNA expression level (CAT D mRNA; FaDu, with respect to control): 1.31 fold change | CAT D mRNA expression level (CAT D mRNA; K562, with respect to control): 1.24 fold change | CAT D mRNA expression level (CAT D mRNA; [16]): 1.15 fold change | CAT D mRNA expression level (CAT D mRNA; PC-3, with respect to control): 1.35 fold change | DHFR mRNA expression level (DHFR mRNA): 1.17 fold change | cell cycle phase arrested (PC-3 [9]): arrest of the G0/G1 phase | cell cycle phase arrested (A431 [10]): G2/M phase | cell cycle phase arrested (K562): arrest of the G0/G1 phase | effect on tubulin polymerization (tubulin protein): inhibit the polymerization of α and β tubulin | total of FITC mean (Rh123) (A431 cells; 10 µM): 3101 ± 1.41 | total of FITC mean (Rh123) (A431 cells; 100 µM): 2913 ± 1.41 | percent decrease of mitochondrial membrane potential concerning control (A431 cells; A431, highest concentration, 24 h, spectrofluorometer): 13.05 ± 2.6% | HDAC-6 level (ng/mg of protein) (HDAC-6): 0.104 ± 0.001 ng/mg | reduction of EAC tumor cells (tumor growth inhibition) ([11]; 50 mg/kg bw i.p.): 23.98% | survival rate higher compared to EAC harbored mice ([11]; 75 mg/kg body weight): 17% | survival of EAC harbored mice (survived till) ([11]; 75 mg/kg body weight, untreated EAC mice died within 24 days): 27 days | reduction of EAC tumor cells (tumor growth inhibition) ([11]; 75 mg/kg bw i.p.): 58.84% | cytotoxicity to HEK-293 (HEK-293): non-cytotoxic | IC50 [12]: 16.4 to 99.3 µM | toxicity to erythrocytes (osmotic fragility) (human erythrocytes): non-toxic to erythrocytes | acute oral toxicity outcome (Acute oral toxicity): safe and non-toxic | LD50 [13]: 4000 mg/kg | IC50 (Cathepsin D (CATD) [14]): 30.4 ± 6.44 µM | IC50 (Cathepsin D (CATD) [15]; A549): 62 ± 2.08 µM | IC50 (Cathepsin D (CATD) [15]; FaDu): 74.62 ± 0.21 µM | IC50 (Cathepsin D (CATD) [15]; K562): 57.5 ± 14 µM
